Experimental data published in patent publication US11484598B1, “Pleuromulin rhein ester with anti-drug resistant bacteria activity and a method of preparing the same” (XI'AN KANGYUANSHENG BIOMEDICAL TECHNOLOGY CO., LTD., priority 2021, dated 2022).
Converted amounts (≈) assume the structure as drawn.

How the values were obtained:
Format in all cases: cell-based
[1] = tested on: methicillin-resistant Staphylococcus aureus MRSA 18-575; test: MIC by microbroth dilution method, MRSA 18-575; conditions: for Minimum bacteriostatic concentration: strain MRSA 18-575, 37° C., 20-22 hours
Description: (§1) The minimal inhibitory concentration (MIC) of the compounds as determined by microbroth dilution method was measured with ceftazidime and vancomycin as positive control.
(§2) The experimental strains included drug-resistant gram-positive bacteria: methicillin-resistant Staphylococcus aureus MRSA 18-575; drug-resistant gram-negative bacteria: multi-drug-resistant Pseudomonas aeruginosa MDR-PA 18-126, 18-756, Carbapenem-resistant Acinetobacter baumannii CR-AB 18-184, 18-560. The experimental strains were all donated by Huashan Hospital Affiliated to Fudan University (Fudan University Antibiotic Research Institute), and used after being identified by conventional methods.
(§3) Preparation of MHB medium: 20.0 g NMB medium was added to 1 L distilled water, boiled until completely dissolved, packed in conical bottles and sterilized at 121° C. for 15 min.
(§4) The experimental strain was cultured to the logarithmic growth phase: under aseptic condition, the experimental strain was inoculated into 100 mL NMB medium and incubated in a constant temperature and humidity incubator at 37° C. for 20-22 hours.
(§5) Preparation of storage solution: weighing the sample to be tested, dissolving it with 1% DMSO solution, preparing a storage solution with a concentration of 2560 μg/mL, weighing a positive reference substance, dissolving it with aseptic distilled water, and configuring a stock solution with a concentration of 2560 μg/mL.
(§6) Preparation of bacterial suspension: under aseptic condition, the experimental strains cultured to logarithmic growth phase were adjusted to 0.5 MCF turbidity standard with MHB medium and diluted according to 1:10, and the bacterial suspension with concentration of 10^6 CFU/mL was prepared for standby.
(§7) Stock solution dilution and inoculation of experimental strains: under aseptic conditions, diluting the stock solution to a solution of 256 μg/mL, taking a sterile 96-well plate, adding 100 μL of MHB medium to each well except for the first and second wells; adding 100 μL of positive control solution to the first well, and adding 100 μL of compound sample solution to the second and third wells; mixing the sample solution in the 3 wells with the medium, and then pipetting 100 μL to the 4th well, and then pipetting 100 μL to the 5th well after mixing, and then diluting to the 9th well in a series of times, and drawing 100 μL from the 9th well and discard, the 10th well is a growth control without drugs; then, adding 100 μL of the above-prepared bacterial suspension to each well to make the final bacterial concentration of each well 5×10^5 CFU/mL; the positive control concentration was 128 μg/mL, the concentrations of the sample solution were 128, 64, 32, 16, 8, 4, 2, 1 μg/mL.
(§8) Incubation: covering the 96-well plate inoculated with the experimental strains, and incubating in a constant temperature and humidity box at 37° C. for 20-22 hours.

[2] = tested on: multi-drug-resistant Pseudomonas aeruginosa MDR-PA 18-756; test: MIC by microbroth dilution method, MDR-PA 18-756; conditions: strain MDR-PA 18-756; 37° C., 20-22 hours
Description: as §1, §2, §3, §4, §5, §6
as §7, with “μg/mL. […]” for “μg/mL.”

[3] = tested on: multi-drug-resistant Pseudomonas aeruginosa MDR-PA 18-126; test: MIC by microbroth dilution method, MDR-PA 18-126; conditions: for Minimum bacteriostatic concentration: strain MDR-PA 18-126, 37° C., 20-22 hours
Description: as §1, §2, §3, §4, §5, §6, §7, §8

[4] = tested on: Carbapenem-resistant Acinetobacter baumannii CR-AB 18-184; test: MIC by microbroth dilution method, CR-AB 18-184; conditions: for Minimum bacteriostatic concentration: strain CR-AB 18-184, 37° C., 20-22 hours
Description: as §1, §2, §3, §4, §5, §6, §7, §8

[5] = tested on: Carbapenem-resistant Acinetobacter baumannii CR-AB 18-560; test: MIC by microbroth dilution method, CR-AB 18-560; conditions: strain CR-AB 18-560; 37° C., 20-22 hours
Description: as §1, §2, §3, §4, §5, §6
as §7, with “μg/mL. […]” for “μg/mL.”

drug-resistant bacteria = test: Antibacterial activity test, summary over all experimental strains; conditions: text summary of FIG. 1-5 and Table 1
Description: as §1, §2, §3
The experimental strain was cultured to the logarithmic growth phase: under aseptic condition, the experimental strain was inoculated into 100 mL NMB medium and incubated in a constant temperature and humidity incubator at 37° C. for 20-22 hours. […]

Q: For `CC(C)(O/N=C(\C(=O)N[C@@H]1C(=O)N2C(C(=O)[O-])=C(C[n+]3ccccc3)CS[C@H]12)c1csc(N)n1)C(=O)O` [Ceftazidime], which Minimum bacteriostatic concentration [1] is on record?
A: 128 µg/mL

Q: And the Minimum bacteriostatic concentration [2]?
A: 128 µg/mL

Q: What about the Minimum bacteriostatic concentration [3] of the same compound?
A: 128 µg/mL

Q: And the Minimum bacteriostatic concentration [4]?
A: 128 µg/mL

Q: And the Minimum bacteriostatic concentration [5]?
A: 128 µg/mL

Q: `C=C[C@@]1(C)C[C@H](OC(=O)COC(=O)c2cc(O)c3c(c2)C(=O)c2cccc(O)c2C3=O)[C@]2(C)C3C(=O)CC[C@]3(CC[C@@H]2C)[C@H](C)[C@H]1O` (some centres unmarked) [Pleuromulin rhein ester] was tested. Which MIC ([1]; Staphylococcus aureus, MRSA) did it give?
A: 64 µg/mL (≈ 99.3 µM)

Q: And the Minimum bacteriostatic concentration [1]?
A: 64 µg/mL

Q: What about the Minimum bacteriostatic concentration [2] of the same compound?
A: >128 µg/mL

Q: And the MIC ([3]; Pseudomonas aeruginosa, MDR-PA, strain number not stated (64 matches 18-126))?
A: 64 µg/mL (≈ 99.3 µM)

Q: And the Minimum bacteriostatic concentration [3]?
A: 64 µg/mL

Q: And the MIC ([4]; Acinetobacter baumannii, CR-AB, strain number not stated (64 matches 18-184))?
A: 64 µg/mL (≈ 99.3 µM)

Q: What about the Minimum bacteriostatic concentration [4] of the same compound?
A: 64 µg/mL

Q: And the Minimum bacteriostatic concentration [5]?
A: >128 µg/mL

Q: How did the Minimum bacteriostatic concentration [1] turn out when `C=C[C@]1(C)C[C@@H](OC(=O)CO)[C@]2(C)[C@H](C)CC[C@]3(CCC(=O)[C@H]32)[C@@H](C)[C@@H]1O` [Pleuromulin] was run?
A: >128 µg/mL

Q: And the Minimum bacteriostatic concentration [2]?
A: >128 µg/mL

Q: And the Minimum bacteriostatic concentration [3]?
A: >128 µg/mL

Q: What about the Minimum bacteriostatic concentration [4] of the same compound?
A: >128 µg/mL

Q: What about the Minimum bacteriostatic concentration [5] of the same compound?
A: >128 µg/mL

Q: What about the “inhibitory effect on drug-resistant bacteria” value (drug-resistant bacteria) of the same compound?
A: no inhibitory effect

Q: How did the Minimum bacteriostatic concentration [1] turn out when `O=C(O)c1cc(O)c2c(c1)C(=O)c1cccc(O)c1C2=O` [Rhein] was run?
A: >128 µg/mL

Q: What about the Minimum bacteriostatic concentration [2] of the same compound?
A: >128 µg/mL

Q: And the Minimum bacteriostatic concentration [3]?
A: >128 µg/mL

Q: What about the Minimum bacteriostatic concentration [4] of the same compound?
A: >128 µg/mL

Q: What about the Minimum bacteriostatic concentration [5] of the same compound?
A: >128 µg/mL

Q: And the “inhibitory effect on drug-resistant bacteria” value (drug-resistant bacteria)?
A: no inhibitory effect

Q: `CN[C@H](CC(C)C)C(=O)N[C@H]1C(=O)N[C@@H](CC(N)=O)C(=O)N[C@H]2C(=O)N[C@H]3C(=O)N[C@H](C(=O)N[C@H](C(=O)O)c4cc(O)cc(O)c4-c4cc3ccc4O)[C@H](O)c3ccc(c(Cl)c3)Oc3cc2cc(c3O[C@@H]2O[C@H](CO)[C@@H](O)[C@H](O)[C@H]2O[C@H]2C[C@](C)(N)[C@H](O)[C@H](C)O2)Oc2ccc(cc2Cl)[C@H]1O` [Vancomycin] was tested. Which Minimum bacteriostatic concentration [1] did it give?
A: 512 µg/mL
